Source: US10575528B2, “Plant disease control composition and plant disease control method” (SUMITOMO CHEMICAL COMPANY, LIMITED, priority 2015, dated 2020)

Experiments:
[1] = system: damping-off fungus (Rhizoctonia solani); assay: Test Example 16: soybean seed smearing treatment, damping-off pot test (Table 5); type: in vivo; details: soybean seeds, 20 days after
Experimental: (§1) If the effect by the combination of two active ingredients is greater than that of the estimated value E, which is calculated by the Colby's equation as follows, the effect is regarded as synergistic. E=X+Y−X·Y/100 wherein, E=Control value when using the mixture of the active ingredients A and B at the concentrations m and n (amount of the active ingredient), respectively.
(§2) X=Control value when using the active ingredient A at the concentration m (amount of the active ingredient).
(§3) Y=Control value when using the active ingredient B at the concentration n (amount of the active ingredient).
In a rotary seed treatment machine (trade name: HEGE11, manufactured by WINTERSTEIGER), soybean seeds (variety:“Hatayutaka”) were treated by smearing treatment using azoxystrobin flowable formulation (25% flowable formulation, trade name: Amistar, Syngenta), trifloxystrobin flowable formulation (25% flowable formulation, trade name: FLINT, Bayer CropScience), a chemical liquid prepared by diluting picoxystrobin in acetone/Tween 20 (weight ratio=95:5) and diluting with water, a chemical liquid prepared by dissolving mandestrobin in acetone/Tween 20 (weight ratio=95:5) and diluting with water, and the flowable formulation obtained of the present bacterial strain in Formulation Example 16, so that the soybean seeds retain the bacteria and the compound in the amount shown in Table 5.
Cultivation was carried out in a greenhouse under irrigation. Also, similar procedures were conducted using untreated soybean seeds, instead of the treated soybean seeds, as described above for the treated compartment (“untreated compartment”). The plants were investigated 20 days after for the number of diseased plants, and the disease incidence was calculated by the following “Equation 1”. The control value of the treated compartment was calculated by the following equation “Equation 2”, based on the disease incidences of the treated compartment and the untreated compartment. Disease incidence (%)=100×(number of diseased plant/total number of seeded seeds): Equation 1 Control value (%)=100×[(disease incidence in untreated compartment−disease incidence in treated compartment)/disease incidence in untreated compartment]: Equation 2

[2] = system: damping-off fungus (Fusarium spp.); assay: Test Example 15: corn seed smearing treatment, damping-off pot test (Table 4); type: in vivo; details: corn seeds, 20 days after
Experimental: In a rotary seed treatment machine (trade name: HEGE11, manufactured by WINTERSTEIGER), corn seeds (variety: yellow dent corn) were treated by smearing treatment using pyraclostrobin flowable formulation (20% wettable granules, trade name: Comet, BASF. Corporation), a chemical liquid prepared by dissolving fluoxastrobin in acetone/Tween 20 (weight ratio=95:5) and diluting with water, and the flowable formulation of the present bacterial strain obtained in Formulation Example 16, respectively, so that the corn seeds retain the present bacterial strain and the compound in the amount shown in Table 4.
Cultivation was carried out in a greenhouse under irrigation. Also, similar procedures were conducted using untreated corn seeds, instead of the treated corn seeds, as described above for the treated compartment (“untreated compartment”). The plants were investigated 20 days after for the number of diseased plants, and the disease incidence was calculated by the following “Equation 1”. The control value of the treated compartment was calculated by the following equation “Equation 2”, based on the disease incidences of the treated compartment and the untreated compartment. Disease incidence (%)=100×(number of diseased plant/total number of seeded seeds): Equation 1 Control value (%)=100×[(disease incidence in […] in treated compartment)/disease incidence in untreated compartment]: Equation 2
as §1, §2, §3

Row | Compound | Controlling Effect (control value) ([1]; 0.01 g/Kg seeds) | Controlling Effect (control value) ([2]; 0.05 g/Kg seeds) | Controlling Effect (control value) ([2]; 0.1 g/Kg seeds) | Controlling Effect (control value) ([1]; 0.05 g/Kg seeds) | Controlling Effect (control value) ([1]; 0.002 g/Kg seeds) | other results
1 | CO/C=C(/C(=O)OC)c1ccccc1Oc1cc(Oc2ccccc2C#N)ncn1 [Azoxystrobin] | 29.5% | – | – | – | – | Controlling Effect (control value) ([1]; 0.005 g/Kg seeds): 15.9%; Controlling Effect (control value) ([1]; 0.02 g/Kg seeds): 38.6%
2 | CO/N=C(/C1=NOCCO1)c1ccccc1Oc1ncnc(Oc2ccccc2Cl)c1F [Fluoxastrobin] | – | 14.0% | 30.2% | – | – | Controlling Effect (control value) ([2]; 0.2 g/Kg seeds): 41.9%
3 | CNC(=O)C(OC)c1ccccc1COc1cc(C)ccc1C (stereo not drawn) [Mandestrobin] | – | – | – | 36.4% | – | Controlling Effect (control value) ([1]; 0.025 g/Kg seeds): 25.0%; Controlling Effect (control value) ([1]; 0.1 g/Kg seeds): 47.7%
4 | CO/C=C(/C(=O)OC)c1ccccc1COc1cccc(C(F)(F)F)n1 [Picoxystrobin] | 27.3% | – | – | 38.6% | 18.2% | –
5 | COC(=O)N(OC)c1ccccc1COc1ccn(-c2ccc(Cl)cc2)n1 [Pyraclostrobin] | – | 25.6% | 37.2% | – | – | Controlling Effect (control value) ([2]; 0.025 g/Kg seeds): 18.6%
6 | CON=C(C(=O)OC)c1ccccc1CON=C(C)c1cccc(C(F)(F)F)c1 [Trifloxystrobin] | 31.8% | – | – | 40.9% | 20.5% | –
